Assay results reported in patent US10285979B2, “Breast cancer therapeutic agent containing 5′-hydroxy-5-nitro-indirubin-3′-oxime as active ingredient” (ANYGEN CO., LTD., priority 2016, dated 2019).
Where two headings read alike, the source gives them in different places.

Tested on: MDA-MB-231 triple negative breast cancer cells
Conditions: paclitaxel 5 mg/kg
Source text: After implanting MDA-MB-231 triple negative breast cancer cells to the nude mouse, the tumor has been grown to the 200 mm^3 volume. […] The tumor growth has been observed for 27 days.
The tumor volume and shape in the nude mouse have been observed for 27 days.

CC(=O)O[C@H]1C(=O)[C@@]2(C)[C@H]([C@H](OC(=O)c3ccccc3)[C@]3(O)C[C@H](OC(=O)[C@H](O)[C@@H](NC(=O)c4ccccc4)c4ccccc4)C(C)=C1C3(C)C)[C@]1(OC(C)=O)CO[C@@H]1C[C@@H]2O [Paclitaxel, paclitaxel, reference compound]
volume of tumor, Mean ± S.E. (day 0): 277.1 ± 16.2
volume of tumor, Mean ± S.E. (day 3): 354.3 ± 6.3
volume of tumor, Mean ± S.E. (day 6): 437.9 ± 20.8
volume of tumor, Mean ± S.E. (day 12): 716.8 ± 72.9
volume of tumor, Mean ± S.E. (day 15): 906.2 ± 88.2
volume of tumor, Mean ± S.E. (day 18): 1161.2 ± 86.4
volume of tumor, Mean ± S.E. (day 21): 1421.7 ± 82.6
volume of tumor, Mean ± S.E. (day 24): 1760.2 ± 83.8
volume of tumor, Mean ± S.E. (day 27): 2136.0 ± 125.9
